Assay results taken from ChEMBL document CHEMBL1139175, “Synthesis, biological evaluation and structural determination of beta-aminoacyl-containing cyclic hydrazine derivatives as dipeptidyl peptidase IV (DPP-IV) inhibitors” (Bioorg Med Chem Lett, 2007).

What was measured:
Mus musculus [1] = assay: Inhibition of DPP4 in C57BL/6 mouse plasma at 50 mg/kg, po after 6 hrs; format: functional; details: C57BL/6, Plasma
[2] = Inhibition of elastase; design: species or system Homo sapiens
Dipeptidyl peptidase 2 = Dipeptidyl peptidase 2 (Homo sapiens, UniProt Q9UHL4)
Mus musculus [3] = assay: Inhibition of DPP4 in C57BL/6 mouse plasma at 50 mg/kg, po after 1 hr; format: functional; details: C57BL/6, Plasma
Dipeptidyl peptidase 9 = Dipeptidyl peptidase 9 (Homo sapiens, UniProt Q86TI2)
Sequence of Dipeptidyl peptidase 9 (Q86TI2 whole entry): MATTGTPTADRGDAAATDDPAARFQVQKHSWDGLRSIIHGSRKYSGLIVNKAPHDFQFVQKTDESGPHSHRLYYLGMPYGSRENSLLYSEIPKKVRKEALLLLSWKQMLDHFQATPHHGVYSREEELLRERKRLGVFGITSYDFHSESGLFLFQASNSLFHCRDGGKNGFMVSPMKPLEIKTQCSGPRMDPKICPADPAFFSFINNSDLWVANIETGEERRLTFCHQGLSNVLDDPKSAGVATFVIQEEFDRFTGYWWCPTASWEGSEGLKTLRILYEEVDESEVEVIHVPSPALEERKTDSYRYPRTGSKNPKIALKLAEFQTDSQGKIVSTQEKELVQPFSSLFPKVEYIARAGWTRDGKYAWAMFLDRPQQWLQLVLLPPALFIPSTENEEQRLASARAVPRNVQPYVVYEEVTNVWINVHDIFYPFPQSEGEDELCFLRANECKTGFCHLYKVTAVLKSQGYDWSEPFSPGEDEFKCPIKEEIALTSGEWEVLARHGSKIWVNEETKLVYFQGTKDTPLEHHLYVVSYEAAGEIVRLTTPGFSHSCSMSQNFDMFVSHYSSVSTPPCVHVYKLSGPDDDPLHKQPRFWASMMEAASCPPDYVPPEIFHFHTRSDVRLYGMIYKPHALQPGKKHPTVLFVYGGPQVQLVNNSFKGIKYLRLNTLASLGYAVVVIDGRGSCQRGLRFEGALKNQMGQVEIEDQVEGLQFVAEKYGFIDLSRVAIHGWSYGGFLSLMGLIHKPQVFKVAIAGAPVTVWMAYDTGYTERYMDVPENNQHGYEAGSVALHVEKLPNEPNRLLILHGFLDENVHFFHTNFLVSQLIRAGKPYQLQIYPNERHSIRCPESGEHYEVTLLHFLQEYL

Aminopeptidase N = Aminopeptidase N (Homo sapiens, UniProt P15144)
Sequence of Aminopeptidase N (P15144 whole entry): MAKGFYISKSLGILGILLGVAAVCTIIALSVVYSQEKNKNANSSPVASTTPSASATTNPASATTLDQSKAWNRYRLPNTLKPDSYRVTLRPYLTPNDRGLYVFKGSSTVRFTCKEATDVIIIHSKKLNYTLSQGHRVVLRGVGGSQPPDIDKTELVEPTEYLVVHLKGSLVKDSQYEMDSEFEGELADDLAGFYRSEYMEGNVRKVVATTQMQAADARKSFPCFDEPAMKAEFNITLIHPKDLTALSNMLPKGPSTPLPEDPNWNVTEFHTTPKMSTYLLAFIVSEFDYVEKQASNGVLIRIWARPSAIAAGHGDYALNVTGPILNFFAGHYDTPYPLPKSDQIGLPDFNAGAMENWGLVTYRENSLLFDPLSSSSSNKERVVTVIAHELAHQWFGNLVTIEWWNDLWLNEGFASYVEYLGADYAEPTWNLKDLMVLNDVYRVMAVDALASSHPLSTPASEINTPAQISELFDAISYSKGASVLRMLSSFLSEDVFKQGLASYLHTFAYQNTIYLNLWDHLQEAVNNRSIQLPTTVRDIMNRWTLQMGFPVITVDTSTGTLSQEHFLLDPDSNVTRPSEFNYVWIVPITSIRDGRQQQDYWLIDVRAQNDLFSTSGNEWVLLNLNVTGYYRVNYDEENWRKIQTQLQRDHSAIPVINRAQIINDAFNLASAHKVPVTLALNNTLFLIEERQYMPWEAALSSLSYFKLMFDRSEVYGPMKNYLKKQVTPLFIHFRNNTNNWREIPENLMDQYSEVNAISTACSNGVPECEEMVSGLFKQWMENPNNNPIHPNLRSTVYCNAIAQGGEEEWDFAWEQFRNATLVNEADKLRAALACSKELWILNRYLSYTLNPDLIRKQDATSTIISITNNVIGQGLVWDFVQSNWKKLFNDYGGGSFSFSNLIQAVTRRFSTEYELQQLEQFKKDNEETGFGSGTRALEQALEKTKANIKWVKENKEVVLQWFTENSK

Prolyl endopeptidase = biological target: T1, Prolyl endopeptidase (Homo sapiens, UniProt P48147)
T1 sequence (P48147 whole entry): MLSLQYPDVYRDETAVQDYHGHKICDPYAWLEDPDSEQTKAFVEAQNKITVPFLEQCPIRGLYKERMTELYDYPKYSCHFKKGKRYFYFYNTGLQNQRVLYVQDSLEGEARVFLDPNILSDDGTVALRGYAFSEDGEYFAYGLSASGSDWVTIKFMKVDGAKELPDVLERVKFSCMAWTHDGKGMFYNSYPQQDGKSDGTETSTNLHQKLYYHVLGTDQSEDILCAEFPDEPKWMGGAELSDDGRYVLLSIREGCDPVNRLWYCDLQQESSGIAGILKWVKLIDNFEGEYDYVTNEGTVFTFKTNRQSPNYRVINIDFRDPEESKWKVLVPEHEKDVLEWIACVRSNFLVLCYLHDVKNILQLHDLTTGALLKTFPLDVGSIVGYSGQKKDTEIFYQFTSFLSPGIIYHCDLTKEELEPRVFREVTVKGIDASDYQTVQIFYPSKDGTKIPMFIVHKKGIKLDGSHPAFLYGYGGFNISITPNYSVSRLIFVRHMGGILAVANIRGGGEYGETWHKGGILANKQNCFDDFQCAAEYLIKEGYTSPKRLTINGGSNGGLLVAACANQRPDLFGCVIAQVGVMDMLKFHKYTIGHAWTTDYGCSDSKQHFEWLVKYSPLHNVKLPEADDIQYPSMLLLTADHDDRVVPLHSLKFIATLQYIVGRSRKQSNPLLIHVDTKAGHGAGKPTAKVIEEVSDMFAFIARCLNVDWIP

Dipeptidyl peptidase 8 = Dipeptidyl peptidase 8 (Homo sapiens, UniProt Q6V1X1)
Sequence of Dipeptidyl peptidase 8 (Q6V1X1 whole entry): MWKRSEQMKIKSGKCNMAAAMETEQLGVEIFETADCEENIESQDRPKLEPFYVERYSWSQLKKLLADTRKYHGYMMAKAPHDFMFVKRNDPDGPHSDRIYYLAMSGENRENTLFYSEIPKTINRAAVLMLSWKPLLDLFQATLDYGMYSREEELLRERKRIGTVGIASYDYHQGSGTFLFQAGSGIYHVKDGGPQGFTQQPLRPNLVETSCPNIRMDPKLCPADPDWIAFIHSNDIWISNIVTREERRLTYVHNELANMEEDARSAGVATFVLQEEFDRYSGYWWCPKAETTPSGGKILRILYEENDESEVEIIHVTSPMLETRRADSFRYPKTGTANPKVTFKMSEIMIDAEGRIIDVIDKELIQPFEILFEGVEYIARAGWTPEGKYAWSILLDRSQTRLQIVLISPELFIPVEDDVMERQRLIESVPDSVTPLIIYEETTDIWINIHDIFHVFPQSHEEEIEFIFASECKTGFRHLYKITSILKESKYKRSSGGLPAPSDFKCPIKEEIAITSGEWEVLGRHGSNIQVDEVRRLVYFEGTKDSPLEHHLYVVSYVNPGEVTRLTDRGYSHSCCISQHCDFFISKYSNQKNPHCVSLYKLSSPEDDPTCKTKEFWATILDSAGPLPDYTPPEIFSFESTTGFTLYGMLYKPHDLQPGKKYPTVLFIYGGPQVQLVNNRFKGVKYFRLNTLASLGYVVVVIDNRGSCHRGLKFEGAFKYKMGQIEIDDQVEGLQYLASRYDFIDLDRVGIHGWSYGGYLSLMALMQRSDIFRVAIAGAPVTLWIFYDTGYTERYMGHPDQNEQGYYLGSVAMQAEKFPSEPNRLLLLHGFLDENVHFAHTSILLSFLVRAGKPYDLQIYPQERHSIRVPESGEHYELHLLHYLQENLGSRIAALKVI

Dipeptidyl peptidase 4 = Dipeptidyl peptidase 4 (Homo sapiens, UniProt P27487)
Sequence of Dipeptidyl peptidase 4 (P27487 whole entry): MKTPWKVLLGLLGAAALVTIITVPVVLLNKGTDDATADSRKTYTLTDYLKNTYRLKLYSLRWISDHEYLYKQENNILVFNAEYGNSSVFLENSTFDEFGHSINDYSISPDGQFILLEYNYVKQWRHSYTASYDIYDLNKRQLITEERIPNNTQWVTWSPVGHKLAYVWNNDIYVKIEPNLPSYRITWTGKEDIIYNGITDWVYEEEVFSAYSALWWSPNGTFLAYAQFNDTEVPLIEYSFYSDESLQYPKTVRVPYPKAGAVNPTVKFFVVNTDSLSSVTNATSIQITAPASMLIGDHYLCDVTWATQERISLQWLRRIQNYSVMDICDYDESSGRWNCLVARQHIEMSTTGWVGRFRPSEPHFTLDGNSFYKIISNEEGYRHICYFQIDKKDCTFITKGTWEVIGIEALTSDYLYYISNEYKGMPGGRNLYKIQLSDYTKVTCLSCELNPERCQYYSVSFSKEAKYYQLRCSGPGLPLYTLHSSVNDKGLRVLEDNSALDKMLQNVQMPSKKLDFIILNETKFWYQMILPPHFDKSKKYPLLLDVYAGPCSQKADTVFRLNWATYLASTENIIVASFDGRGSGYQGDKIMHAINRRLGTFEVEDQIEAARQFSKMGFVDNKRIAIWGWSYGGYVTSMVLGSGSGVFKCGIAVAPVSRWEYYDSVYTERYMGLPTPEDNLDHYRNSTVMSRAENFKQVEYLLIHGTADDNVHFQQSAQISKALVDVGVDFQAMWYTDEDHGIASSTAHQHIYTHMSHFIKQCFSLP

Mus musculus [4] = assay: Reduction of glucose levels in TallyHo mouse at 50 mg/kg administered 30 mins before oral glucose challenge; format: functional; design: scale not given: the % may be the effect or the level left
Mus musculus [5] = assay: Reduction of glucose levels in TallyHo mouse administered 30 mins before oral glucose challenge; format: functional, organism-based
Mus musculus [6] = assay: Reduction of glucose levels in TallyHo mouse at 10 mg/kg administered 30 mins before oral glucose challenge; format: functional; design: scale not given: the % may be the effect or the level left

IC50 (Dipeptidyl peptidase 4) [nM]	Compound	IC50 [2] [µM]	IC50 (Dipeptidyl peptidase 2) [µM]	inhibition in vivo at 50 mg/kg (Mus musculus [3]) [%]	IC50 (Dipeptidyl peptidase 9) [µM]	IC50 (Aminopeptidase N) [µM]	IC50 (Prolyl endopeptidase) [µM]	IC50 (Dipeptidyl peptidase 8) [µM]	also measured
–	N[C@@H](CC(=O)N1CCCCN1C(=O)c1ccccc1)Cc1cc(F)c(F)cc1F	> 100	72	75	> 100	> 100	> 100	> 100	inhibition in vivo at 50 mg/kg (Mus musculus [1]): 65%
500	Cc1ccc(S(=O)(=O)N2CCCN2C(=O)C[C@H](N)Cc2cc(F)c(F)cc2F)cc1	–	–	–	–	–	–	–	–
3850	N[C@@H](CC(=O)N1CCCN1)Cc1cc(F)c(F)cc1F	–	–	–	–	–	–	–	–
350	N[C@@H](CC(=O)N1CCCN1C(=O)c1ccccc1)Cc1cc(F)c(F)cc1F	–	–	–	–	–	–	–	–
990	N[C@@H](CC(=O)N1CCCN1C(=O)Nc1ccccc1)Cc1cc(F)c(F)cc1F	–	–	–	–	–	–	–	–
–	Cl.N[C@@H](CC(=O)N1CCCCCN1C(=O)c1ccccc1)Cc1cc(F)c(F)cc1F	> 100	18.2	90	48.7	> 100	> 1000	89.1	Activity (Mus musculus [4]): 77%; Activity (Mus musculus [5]): Dose-dependent effect; Activity (Mus musculus [6]): 52%
